Experimental data published in patent US20160030416A1, “METHODS OF TREATING B2-BRADYKININ RECEPTOR MEDIATED ANGIOEDEMA” (SHIRE HUMAN GENETIC THERAPIES, INC., priority 2013, published 2016).

Key:
[1] = Bidirectional permeability in Caco-2 cells; type: in vitro ADME, human; details: human, 5 μM, 120 minutes
Experimental: (§1) To determine bidirectional permeability, CFMQ was examined in an in vitro incubation assay with […] (Caco-2 cell). CFMQ at 5 μM was dosed to the cell monolayers on the apical side (A-to-B) or basolateral side (B-to-A) and incubated at 37° C. with 5% CO2 for 120 minutes. Permeability of Lucifer Yellow (500 μM) was measured to ensure no damage was inflicted to the cell monolayers during the CFMQ flux period. All samples were assayed by LC-MS/MS using electrospray ionization.

[2] = test system: Caco-2 cell; test: Bidirectional permeability in Caco-2 cells; type: in vitro ADME, human
Experimental: as §1

[3] = biological target: T1, NK3 (h) (Homo sapiens, UniProt P29371); test: Off-target receptor binding: NK3
T1 construct: expressed in transfected cells; host or cells: CHO or HEK 293 (not assigned per receptor)
T1 sequence (P29371 1-465): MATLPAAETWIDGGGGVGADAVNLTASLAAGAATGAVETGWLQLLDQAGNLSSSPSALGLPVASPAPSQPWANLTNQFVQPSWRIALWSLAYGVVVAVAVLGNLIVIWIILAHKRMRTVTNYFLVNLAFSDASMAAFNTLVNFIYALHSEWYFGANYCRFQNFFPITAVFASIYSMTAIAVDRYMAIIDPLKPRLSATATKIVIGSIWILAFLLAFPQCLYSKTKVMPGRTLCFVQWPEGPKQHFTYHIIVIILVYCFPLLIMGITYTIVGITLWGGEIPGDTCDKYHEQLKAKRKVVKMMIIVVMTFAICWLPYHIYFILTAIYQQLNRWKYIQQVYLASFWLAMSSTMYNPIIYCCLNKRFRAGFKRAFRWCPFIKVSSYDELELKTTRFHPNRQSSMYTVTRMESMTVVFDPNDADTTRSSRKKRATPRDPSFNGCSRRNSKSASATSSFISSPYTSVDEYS
Experimental: To determine the affinity to the B2-bradykinin receptor, CFMQ was compared to a diverse set of receptors and reference agents in an in vitro assay using cells from rat heart, urinary bladder, cerebral cortex, as well as human recombinant cells (CHO and HEK 293) and other cell lines. Each assay included a ligand at a specific concentration (concentration ranging from 0.007-10 nM), in addition to a non-specific ligand (concentration ranging from […]) for incubation periods ranging from 15 minutes to 6 hours at 4°-37° C. The specific binding to the receptors was defined as the difference between the total binding and the nonspecific binding, determined in the presence of an excess of unlabeled CFMQ. The concentration causing a half-maximal inhibition of control specific binding (IC50 values) and inhibition constants (Ki) were determined, and each reference compound was within the accepted limits of the historic average (±0.5 log units).

- Papp A→B at 120 min, 5 μM ([1]; apical to basolateral, read-out: permeability coefficient A-to-B): 34 ×10⁻⁶ cm/s
- Papp B→A at 120 min, 5 μM ([1]; basolateral to apical, read-out: permeability coefficient B-to-A): 38 ×10⁻⁶ cm/s
- efflux [2]: no significant efflux
- permeability classification [2]: highly permeable
- IC50 [3]: 1100 nM
- Ki [3]: 2700 nM
- nH [3]: 1.1
- inhibition at 10 µM ([3]; CFMQ at 10 μM): 53%
Structure (SMILES): Cc1cc(Cl)c(COc2cccc3c(-n4cc(F)cn4)cc(C)nc23)c(Cn2cccc(C#N)c2=O)n1 [CFMQ, 1-((4-Chloro-3-(((4-(4-fluoro-1H-pyrazol-1-yl)-2-methylquinolin-8-yl)oxy)methyl)-6-methylpyridin-2-yl)methyl)-2-oxo-1,2-dihydropyridine-3-carbonitrile]
